# Laboratory results: US20220062299A1, “USE OF GLUCOCORTICOID STEROIDS IN PREVENTING AND TREATING CONDITIONS OF MUSCLE WASTING, AGING AND METABOLIC DISORDER” (NORTHWESTERN UNIVERSITY, priority 2018, published 2022)
# Columns and labels:
# Dysf-null mice = assay: Dosing of metabolic and endocrine biomarkers in blood, serum and tissues, Dysf-null mice, 32 weeks weekly prednisone; assay type: in vivo
# Procedure: Animal handling and steroid regimens. Mice were housed in a pathogen-free dedicated vivarium in accordance with Institutional Animal Care and Use Committee (IACUC) guidelines. Euthanasia was performed through carbon dioxide inhalation followed by cervical dislocation and heart removal. All methods using living animals in this study were performed in ethical accordance with the American Veterinary Medical Association (AVMA) and under protocols fully approved by both the Institutional Animal Care and Use Committee (IACUC) at Northwestern University Feinberg School of Medicine (protocol number ISO00000761). Consistent with the ethical approvals, all efforts were made to minimize suffering. Mice were fed ad libitum with Mouse Breeder Sterilizable Diet (#7904; Harlan Teklad, Indianapolis, Ind.) and maintained on a 12-hour light/dark cycle. mdx mice from the DBA/2J background were obtained from the Jackson Laboratory (Bar Harbor, Me.; stock #013141) and interbred. Male mice were used for reported experiments. Age at start was approximately 6 months for short-term experiments, approximately 6 weeks for long-term experiments. Dysferlin-null (Dysf-null) mice from the 129T2/SvEmsJ background were previously characterized (Demonbreun et al., 2011; Demonbreun et al., 2014). Age at start was approximately 9 months for long-term experiments. For experiments with Dysf-null and wildtype mice, both females and males (approximately 1:1 ratio) were randomized in treatment groups. […] Dosing was based on weekly weight measurements (1 mg/kg body weight, (Sali et al., 2012)) in 100 μl total PBS volume per dose. […] On injection days, stock solutions stored at −20° C. were diluted into sterile Eppendorf tubes containing sterile phosphate buffered saline (PBS) (#14190; Thermo Fisher, Waltham, Mass.). Puromycin (cat #A1113803, Thermo Scientific, Waltham, Mass.) was administered i.p. as 0.040 μmol/body g, and tissues were snap-frozen 30 minutes after injection. Sterile BD Micro-Fine IV Insulin Syringes (#14-829-1A; Fisher Scientific, Waltham, Mass.) were used to inject the intraperitoneal cavity of non-sedated animals. All animal analyses both during treatment and at endpoint were conducted blinded to treatment groups.
# Dosing of metabolic and endocrine biomarkers. Glycogen was quantitated using the Glycogen Assay Kit (#ab65620; Abcam, Cambridge, Mass.) from approximately 25 mg frozen-pulverized whole tissue, following manufacturer's instructions and internal standards for calculating μg/mg values. For measurement of whole-tissue ATP/NAD^+ levels, approximately 25 mg frozen-pulverized tissue was extracted in 10% perchloric acid and neutralized in 0.75 M K2CO3, as previously described (Ramsey et al., 2009). NAD+ and ATP were measured by high-pressure liquid chromatography (HPLC) with Shimadzu LC-20A pump (Shimadzu Scientific Instr Inc, Addison, Ill.) and UV-VIS detector, using a Supelco LC-18-T column (15 cm×[…]; #58970-U; Millipore-Sigma, St Louis, Mo.). […] Corticosterone was measured in mouse serum and cortisol was measured in human serum using dedicated ELISA kits (#ADI-900-097, Enzo Life Science, Farmingdale, N.Y.; #K7430-100, BioVision, Milpitas, Calif.) according to manufacturer's instructions and internal standards to calculate ng/ml values. Insulin levels were quantitated in mouse and human serum with species-specific ELISA kits (#10-1247-01 (mouse-specific); #10-1113-01 (human-specific); Mercodia, Uppsala, Sweden), following manufacturer's instructions and internal standards to calculate ng/ml values. Free fatty acids were quantitated using Enzychrom Free Fatty Acid Assay kit (#EFFA-100; BioAssay Systems, Hayward, Calif.), following kit's instructions and standards to calculate μM (serum) and nmol/mg (tissue) values.
# mdx mice = assay: Metabolic cages (indirect calorimetry), mdx mice, 40 weeks; assay type: in vivo, mouse; conditions: weekly prednisone
# Procedure: Metabolic cages. VO2 (ml/h/kg) and energy expenditure to body weight (kcal/h/kg) were assessed via indirect calorimetry using the TSE Automated Phenotyping System PhenoMaster (TSE system, Chesterfield, Mo.). Mice were singly housed in their home cages in an enclosed environmental chamber (part of the TSE system) with controlled temperature and light/dark cycles (12 hours each; 6 AM-6 PM). […] Measurements of CO2 production and O2 consumption occurred using the attached gas analyzer to assess energy expenditure. In addition, physical activity in three dimensions was monitored via infrared beam breaks through frames mounted on the perimeter of the metabolic cages. Enrichment items were omitted to avoid insulation from sensors and infrared light beam path obstruction. Results are expressed as 12 hour-period values (light/dark; 10 values per mouse). Metabolic cage assays were conducted blinded to treatment groups.
# [1] = weekly prednisone, mean ± s.e.m
structure (smiles),measurement,setting,value
"C[C@]12C=CC(=O)C=C1CC[C@@H]1[C@@H]2C(=O)C[C@@]2(C)[C@H]1CC[C@]2(O)C(=O)CO [prednisone, Prednisone]",BCAA utilization in muscle,Dysf-null mice; weekly prednisone,improved
same,"endpoint levels of ATP, NAD+, and glycogen in muscle and heart",Dysf-null mice; weekly prednisone,increased
same,fasting glycemia,"Dysf-null mice; weekly prednisone 1 mg/kg i.p., mean ± s.e.m",109 ± 3.17 mg/dL
same,resting lactate,Dysf-null mice; [1],3.36 ± 0.21 mM
same,serum BCAA,Dysf-null mice; [1],419 ± 9.95 µM
same,serum corticosterone,Dysf-null mice; [1],143 ± 5.2 ng/mL
same,serum creatine kinase,Dysf-null mice; [1],1.31 ± 0.04 U/ml
same,serum free fatty acids,Dysf-null mice; [1],475 ± 9.18 µM
same,serum β-hydroxybutyrate,Dysf-null mice; [1],323 ± 9.61 µM
same,"tissue BCAA, diaphragm",Dysf-null mice; [1],45.4 ± 1.06 nmol/mg
same,"tissue BCAA, heart",Dysf-null mice; [1],0.91 ± 0.03 nmol/mg
same,"tissue BCAA, omental fat",Dysf-null mice; [1],24.5 ± 0.8 nmol/mg
same,"tissue BCAA, quadriceps",Dysf-null mice; [1],90.9 ± 2.58 nmol/mg
same,"tissue free fatty acids, diaphragm",Dysf-null mice; [1],0.753 ± 0.07 nmol/mg
same,"tissue free fatty acids, heart",Dysf-null mice; [1],0.438 ± 0.05 nmol/mg
same,"tissue free fatty acids, omental fat",Dysf-null mice; [1],3.49 ± 0.38 nmol/mg
same,"tissue free fatty acids, quadriceps",Dysf-null mice; [1],1.05 ± 0.06 nmol/mg
same,"tissue β-hydroxybutyrate, diaphragm",Dysf-null mice; [1],26.5 ± 2.11 nmol/mg
same,"tissue β-hydroxybutyrate, heart",Dysf-null mice; [1],11.9 ± 0.51 nmol/mg
same,"tissue β-hydroxybutyrate, omental fat",Dysf-null mice; [1],30.2 ± 0.85 nmol/mg
same,"tissue β-hydroxybutyrate, quadriceps",Dysf-null mice; [1],43.8 ± 2.23 nmol/mg
same,oxygen consumption (VO2) and energy expenditure during nocturnal activity,mdx mice,increased
